Source: patent US7153535B2, “Protein sweetener” (Wisconsin Alumni Research Foundation, priority 2002, dated 2006)

Legend:
[1] = level of heat typically present during baking of foods; cited from earlier work
[2] = system: taste fibers predominantly responsive to sweeteners (S fibers) in the Chorda Tympani (CT) nerves; assay: taste nerve fiber recordings during stimulation of the tongue; assay type: in vivo; conditions: fiber nerve recordings from rhesus monkey Chorda Tympani nerves, FIG. 4
Protocol: (§1) To test the sweetness potency of SEQ ID NOS. 3 and 5, we tested the perception of sweetness using a concentration of 100 ug/ml of the protein in water. One test panel consisted of monkeys. The other test panel was of humans. The response measured in the monkeys was level of activity of taste nerve fibers during the stimulation of the tongue with different compounds being tested. Humans were requested to score the sweetness sensations of the stimuli with a magnitude labeled scale in accordance with the techniques of B. Green et al., 21 Chemical Senses 323 (1996) (e.g. barely detectable; weak; moderate; strong; very strong; strongest imaginable).
We used rhesus monkey nerves as an animal model to test primate taste responses to sweet proteins. […] The triangle markings on FIG. 4 indicate exposure timing.

[3] = system: humans; assay: human panel sweetness scoring on a labeled magnitude scale; assay type: in vivo; conditions: 100 ug/ml of the protein in water; monkey and human test panels
Protocol: as §1

| Substance | stability to heat [1] | nerve response recording profile compared with sucrose [2] | sweetness relative to recombinantly produced wild type (des-pGlul) [3] |
| --- | --- | --- | --- |
| Brazzein: sweet protein; SEQ ID NO: 1 is natural Brazzein minus the beginning Glu, recombinantly produced wild type (DKCKKVYENYPVSKCQLANQCNYDCKLDKHARSGECFYDEKRNLQCICDYCEY; listed as Pentadiplandra brazzeana) | stable | more distinct | – |
| D29K: Brazzein variant in which the Asp at position 29 is replaced with Lys (DKCKKVYENYPVSKCQLANQCNYDCKLKKHARSGECFYDEKRNLQCICDYCEY) | – | – | 3 to 4 times |
| D29N: Brazzein variant in which the Asp at position 29 is replaced with Asn (DKCKKVYENYPVSKCQLANQCNYDCKLNKHARSGECFYDEKRNLQCICDYCEY) | – | remarkably close to that of sucrose | 3 to 4 times |
| Glu36Ala: comparative Brazzein variant with Glu at position 36 replaced by Ala (QDKCKKVYENYPVSKCQLANQCNYDCKLDKHARSGACFYDEKRNLQCICDYCEY; UniProt P56552 1-54, looked up, variant E36A) | – | more distinct | – |
